Earlier results, collected in patent US8518458B2, “Tea-derived compositions and methods of using same for cardiovascular health” (Immune Guard, LLC, priority 2006, dated 2013).

Settings: spontaneously hypertensive rats

**Q.** With `CCNC(=O)CC[C@H](N)C(=O)O` [L-theanine, γ-glutamylethylamide] as the compound, how does the “effect on blood pressure” value read?
**A.** Its value is “reduces blood pressure”.
